The record followed here is patent US11975003B2, “Methods and compositions for treatment of Zika virus infection” (priority 2016, dated 2024).

Data set [1] deals with Zika virus. The data set is described as follows: Virus yield reduction curves (FIGS. 1E-1G), strain not stated. The class given is cell-based. The method, then:
(§1) The compounds were administered at a range of concentrations up to 100 μg/ml. Compounds were prepared in MEM just prior to testing. Inhibition of virus replication was determined by microscopic examination of the infected cells for cytopathic effect, increase of neutral red (NR) dye uptake (colorimetric determination), and virus yield reduction. Uninfected cells treated with a compound were assayed as above for cytotoxicity control. The EC50, EC90 and SI (selectivity index) values were determined in Vero76, Huh7 and RD cells as analyzed by the neutral red uptake dye assay and virus yield reduction assays. The results are presented from 3 or more independent experiments (standard deviations not shown. Three Zika virus strains were used in this in vitro study, Malaysia strain P 6-740, Uganda strain MR-766 and Puerto Rico strain PRVABC-59. Cells were maintained under standard conditions.

The test system of data set [2] is Zika virus (Malaysia, strain P 6-740). In words: Murine Zika virus model, treatment begun 4 h before infection (Example 3). Conditions: for percentage weight change vs placebo: FIG. 6; for relative virus levels vs placebo: FIG. 7; for survival vs placebo: none surviving past day 20. Here is the method: The agents used in this experiment were compound A (the compound of formula I, where A is NH2 and B is H as the HCL salt) and ribavirin. Compound A was administered IM at 150 mg/kg/day and 300 mg/kg/day, each in a volume of 0.05 ml saline and ribavirin was administered IP at 75 mg/kg/day and 50 mg/kg/day, each in a volume of 0.1 ml saline. IM or IP administration of the daily dose was accomplished in two IM/IP injections of one-half the daily dose each. Mice were administered the first dose of Compound A and ribavirin 4 hours prior to infection with Zika virus and continued the treatment for 8 days post-infection.
In this experiment, Zika virus (Malaysia, strain P 6-740) was administered at a challenge dose of 100 CCID50 (10^3 pfu) per mouse via subcutaneous injection in a 0.1 ml volume.
Mice were monitored for survival 28 days post-virus challenge. Weight change for individual mice were taken on day 0 and every other day through the end of the experiments. Mice were observed daily for signs of disease including conjunctivitis, hunching, and limb weakness or paralysis.
For Zika virus infection and antiviral treatment studies, mice were randomly assigned to groups of 10 animals each. A 10^-3 dilution (10^4.0 pfu/mL) of the virus was prepared in MEM. Mice were challenged s.c. with 0.1 mL of the diluted virus (˜10^3.0 pfu/animal). All compound dosages were based on an average mouse weight of 22 g. Compounds were prepared in sterile saline less than 18 hours prior to initial administration in mice and stored at 4° C. for the duration of the study. Compound A was administered i.m., twice daily (bid) at 300 or 150 mg/kg/d. Ribavirin was given i.p., bid at 75 or 50 mg/kg/d. Treatments began 4 hours prior to virus challenge and continued for 8 days. The identity of the treatment groups was blinded to the technician administering treatments. Mortality was observed twice daily for 28 days, and the weight of each mouse was recorded on day 0 and then every other day from 1-19 days post-virus infection (dpi). Mice were humanely euthanized if they could no longer right themselves or were unresponsive to stimuli.
Fifty to 100 mg of freshly isolated tissue was ground with a pestle in 1 mL TRI Reagent (Sigma-Aldrich, St. Louis, MO) and total RNA was extracted. For the extraction of viral RNA from liquid samples, QlAamp Viral RNA Mini Spin kit was used according to the manufactures instructions (Qiagen, Valencia, CA). Extracted RNA was eluted with nuclease-free water and was amplified by a quantitative real-time RT-PCR using the Logix Smart Zika Test developed by Co-Diagnostics, Inc. (Bountiful, UT). Five μL of the master mix containing a set of primers and Rapid Probe, labeled with a FAM fluorophore and DABCYL quencher, was mixed with 2-5 μL of RNA and an appropriate volume of water for a final reaction volume of 10 μl. RNA was first reverse transcribed for 10 minutes at 55° C., followed by strand separation by heating to 95° C. for 20 seconds. The PCR reaction consisted of 40 cycles at 95° C. for 1 second and 55° C. for 20 seconds. A standard curve was generated with a synthetic RNA spanning the region of amplification and it was used to calculate the number of genome equivalents of the unknown samples.

Data set [3] deals with Zika virus Malaysia P 6-740. In words: Virus yield reduction (VYR) assay. It is filed as cell-based. Conditions: Zika virus. The method, then: as §1
The subject of data set [4] is Zika virus Puerto Rico PRVABC59. The data set is described as follows: Virus yield reduction (VYR) assay. It is filed as cell-based. Conditions: Zika virus. Here is the method:
as §1

Data set [5] concerns Zika virus Uganda MR 766. The data set is described as follows: Virus yield reduction (VYR) assay. The class given is cell-based. Conditions: Zika virus. The method, then:
as §1

The test system of data set [6] is Zika virus Malaysia P 6-740. In words: CPE reduction assay (neutral red uptake). The class given is cell-based. Particulars: Zika virus. The method, then: as §1
The test system of data set [7] is Zika virus Puerto Rico PRVABC59. The data set is described as follows: CPE reduction assay (neutral red uptake). It is filed as cell-based. Particulars: Zika virus. The method, then: as §1
The subject of data set [8] is Zika virus Uganda MR 766. The data set is described as follows: CPE reduction assay (neutral red uptake). It is filed as cell-based. Conditions: Zika virus. Here is the method: as §1
A short description of data set [9]: Phase 1 study of intramuscular injection in healthy human subjects (Example 8). Conditions: Compound A 4 mg/kg IM with lidocaine. The class given is in vivo. The method, then: A phase 1 double-blind, placebo-controlled, dose-ranging study was conducted to evaluate the safety, tolerability, and pharmacokinetics of Compound A administered by intramuscular injection (IM) in healthy human subjects. The study was conducted in two parts. In part 1, subjects received a single dose of Compound A at doses from 0.3 mg/kg to 10 mg/kg via IM administration. Additionally, the effect of lidocaine administration (co-administered with Compound A at a dose of 4 mg/kg) on alleviation of pain associated with injection was also evaluated. In part 2, subjects received Compound A for 7 days (q.d.) at doses of 2.5 mg/kg/day, 5 mg/kg/day or 10 mg/kg/day via IM administration. 50 subjects received single doses of Compound A in part 1 (12 subjects received placebo) and 23 subjects received multiple doses of Compound A in part 2 (6 subjects received placebo). All planned cohorts were completed.
Eligible subjects were adults of either sex ages 18 to 50. […]
The plasma concentration time profile of Compound A was determined for each subject in part 2 (results expressed as ng/ml Compound A). Blood samples were taken on Day 1 prior to administration of the first dose and at 1, 2, 3, 4, 6, 8, 10, 12, 16 and 24 hours after administration of the first dose of Compound A and on Day 7 prior to administration of the last dose of Compound A and at 1, 2, 3, 4, 6, 8, 10, 12, 16, 24, 36, 48, 72 and 96 hours after administration of the last dose of Compound A. Plasma samples were obtained from the blood samples and the concentration of Compound A determined.

Converted amounts (≈) assume the structure as drawn. Read-outs that look alike come from different tables or passages of the source.

For orientation: EC90 means the point of the concentration-response curve where the effect stands at 90%. A word on the EC50: it is the midpoint of the concentration-response curve. In the case of `NC(=O)c1ncn([C@@H]2O[C@H](CO)[C@@H](O)[C@H]2O)n1` [Ribavirin, reference compound], the “antiviral activity in virus yield reduction” value is listed as “confirmed the antiviral activity” in [1] (Huh-7 cells, FIG. 1F) and “confirmed the antiviral activity” in [1] (RD cells, FIG. 1G). Also, the “activity in VYR studies” value in [1] (Vero76 cells, FIG. 1E) is “not active”. Moreover, the “percentage weight change vs placebo” value in data set [2] (50 mg/kg/day IP (group 7)) and in data set [2] (75 mg/kg/day IP (group 5)) was “no significant improvement” in each case. Further, the “relative virus levels vs placebo” value in data set [2] (50 mg/kg/day IP (group 7)) and in data set [2] (75 mg/kg/day IP (group 5)) was “failed to decrease relative virus levels” throughout. The survival vs placebo entry is listed as “did not increase the survival” in [2] (50 mg/kg/day IP bid x 8 days, begun -4 h (group 7)) and “did not increase the survival” in [2] (75 mg/kg/day IP bid x 8 days, begun -4 h (group 5)). The “weight change in sham-infected mice at day 19” value in data set [2] (75 mg/kg/day IP, sham infection) is recorded as “no significant weight change”. In addition, the EC90 in data set [3] (Huh-7 cells) was 13.1 ± 0.5 µg/mL (≈ 53.6 µM); in data set [3] (Vero 76, Vero76 cells) it was 195 ± 63.6 µg/mL (≈ 799 µM); in data set [4] (Vero 76, read-out: VYR assay EC90), at least 281 µg/mL; in data set [4] (Puerto Rico PRVABC59, Huh-7 cells, read-out: VYR assay EC90), 10.4 ± 0.8 µg/mL (≈ 42.6 µM); in data set [4] (Puerto Rico PRVABC59, RD cells, read-out: VYR assay EC90), 46.3 ± 8.6 µg/mL (≈ 190 µM); in data set [5] (Huh-7 cells) it was 9.52 ± 2.1 µg/mL (≈ 39 µM). For the same molecule, the EC90 in [5] (RD cells) worked out at 13.2 ± 1.7 µg/mL (≈ 54.1 µM); in data set [5] (Vero 76, Vero76 cells), 198 ± 172 µg/mL (≈ 811 µM). For the same molecule, the EC50 in data set [6] (Huh-7 cells) was 7.2 ± 2.8 µg/mL (≈ 29.5 µM); in data set [6] (Vero 76, Vero76 cells), 143 ± 85 µg/mL (≈ 586 µM); in [7] (Vero 76, read-out: CPE red. assay EC50) it was 23 ± 16.8 µg/mL (≈ 94.2 µM); in data set [7] (Puerto Rico PRVABC59, Huh-7 cells, read-out: CPE red. assay EC50), 3.8 ± 1.6 µg/mL (≈ 15.6 µM); in [7] (Puerto Rico PRVABC59, RD cells, read-out: CPE red. assay EC50), 10 ± 6 µg/mL (≈ 40.9 µM); in [8] (Huh-7 cells) it was 8.9 ± 7.9 µg/mL (≈ 36.4 µM). Further, the EC50 in data set [8] (RD cells) came out at 9.3 ± 5.2 µg/mL (≈ 38.1 µM); in [8] (Vero 76, Vero76 cells), 85 ± 77.9 µg/mL (≈ 348 µM).
Take `CCN(CC)CC(=O)Nc1c(C)cccc1C` [lidocaine, reference compound]: the “injection site pain on co-administration with Compound A” value in data set [9] is recorded as “ameliorate injection site pain”.
